From patent US10617662B2, “Autophagy activation-induced compound for improving skin inflammation for aging” (INCOSPHARM CORPORATION, priority 2017, dated 2020)

Columns and labels:
[1] = system: OASL (2′-5′-Oligoadenylate Synthetase Like); assay: RT-PCR of psoriasis-related gene OASL; format: cell-based, human; conditions: HEKa cells, 20 uM, FIGS. 2 and 3
Method: (§1) A psoriasis-related genes were selected from the cDNA array result in which Compound 8 of the present invention was treated in HaCaT cells. In order to analyze whether Compound 8 has an effect on psoriasis alleviation, RT-PCR analysis for IL-36′ (interleukin 36 gamma), KLK7 (Kallikrein-related peptidase 7), OASL (2′-5′-Oligoadenylate Synthetase Like) and ALOX12B (Arachidonate 12-lipoxygenase, 12R type) which are very closely related to psoriasis was carried out. Further, KRT16 (Keratin 16), KRT6 (Keratin 6) and KRT1 (Keratin 1), known as psoriasis-related proliferation, differentiation markers were confirmed by a western blot analysis. As the specific experimental method, HEKa cells (Human Epidermal keratinocytes, adult), human-derived epidermal keratinocytes were seeded on a 24 well plate at a density of 1×10^5 cells, and cultured in an EpiLife medium (1× Human keratinocyte Growth supplement, 1× antibiotics) in an incubator under 37° C. and 5% CO2 for 24 hours. […]

[2] = system: psoriasis animal model induced by imiquimod 5% cream; assay: Psoriasis animal model, transepidermal water loss (TEWL); format: in vivo, BALB/c mice; conditions: increased by 5% imiquimod; applied for 5 days, 0.5% in ethanol or 0.5% cream; FIG. 17
Method: (§2) In order to confirm the psoriasis treatment effect by Compound 8 of the present invention, dorsal hair of 8-week-old BALB/c mice (female) was removed using hair removal cream (Veet®, Oxy Reckitt Benckiser, Cedex, France), and subsequently imiquimod 5% cream (Aldara®; 3M Pharmaceuticals, UK; 62.5 mg) was applied on the back and both ears of the mice twice in the morning and in the afternoon (Sensitization; Day 0). Then, after a barrier recovery period of 2 days, imiquimod 5% cream (62.5 mg/day) was applied repeatedly for 7 days (Induction stage; Day 2 -Day 8), thereby inducing the psoriasis animal model.
(§3) After inducing the psoriasis animal model, Compound 8 of the present invention dissolved in ethanol (0.5%) and cream containing Compound 8 of the present invention (The same composition as that of the cosmetic composition of Example 14 except that it contained 0.5% by weight of Compound 8) were applied on the back once in the morning for 5 days (Treatment Stage; Day 8-Day 12). An untreated control group and a disease control group (vehicle) were treated with cream not containing Compound 8 of the present invention (cosmetic composition of Comparative Example 2) and ethanol, and during the treatment period, imiquimod 5% cream was applied thereon every other day, thereby maintaining psoriasis. […]

[3] = system: IL-36γ (interleukin 36, gamma); assay: Cytokine gene expression, IL-36γ, IL-17A/TNF-α condition; format: cell-based, human; conditions: FIG. 9
[4] = system: LC3 (light chain 3) protein; assay: Western blot for LC3 protein, autophagy activation; format: cell-based, human; conditions: HaCaT cells; 20 uM dilution, 1 ml added to 1 ml medium; FIG. 1
Method: In order to analyze increased intracellular autophagy activation by treatment of Compound 8 of the present invention, a western blot analysis for LC3 (light chain 3) protein was performed.
As a specific experimental method, HaCaT, human epidermal keratinocytes were seeded in on a 6 well plate at a density of 3×10^5 cells, and cultured in DMEM (Dulbecco's Modified Eagle Media, Gibco BRL) in an incubator under 37° C. and 5% CO2 for 24 hours. Compound 8 of the present invention was dissolved in DMSO at a concentration of 10 mM to be a concentrate, and diluted with a medium to be at a concentration of 20 uM. Then in a state where 1 ml of medium was first in each well, 1 ml of each diluted solution was added thereto for treatment, and cultured for a certain period, and after completing the culture, the medium was removed, and then cells were disrupted with a SDS sample buffer, and each protein was separated by SDS-PAGE gel electrophoresis, and transferred to a PVDF (polyvinylidene fluoride) membrane. Thereafter, non-specific binding was eliminated using a blocking buffer, and an antibody against LC3 protein and a HRP-bound secondary antibody (anti-rabbit IgG HRP (sigma)) were reacted, and then an enhanced chemiluminescence (ECL) reaction using an ECL prime kit (Amersham Pharmacia) was carried out, thereby performing a ChemiDoc analysis.

[5] = system: KRT6 (Keratin 6); assay: Western blot of proliferative marker KRT6; format: cell-based, human; conditions: FIG. 4
Method: as §1

[6] = Psoriasis animal model, weight change; format: in vivo, BALB/c mice; conditions: topical treatment, FIG. 16
Method: as §2
After inducing the psoriasis animal model, Compound 8 of the present invention dissolved in ethanol (0.5%) and cream containing Compound 8 of the present invention (The same composition as that of the cosmetic composition of Example 14 except that it contained 0.5% by weight of Compound 8) were applied on the back once in the morning for 5 days (Treatment Stage; Day 8-Day 12). An untreated control group and a disease control group (vehicle) were treated with cream not containing Compound 8 of the present invention (cosmetic composition of Comparative Example 2) and ethanol, and during the treatment period, imiquimod 5% cream was applied thereon every other day, thereby maintaining psoriasis.

[7] = system: IL-6 (interleukin 6); assay: ELISA for IL-6 in HEKa cells under inflammatory condition; format: cell-based, human; conditions: TNF-α/IFN-γ or IL-17A/IL-22 induced inflammatory condition, 10·M, FIGS. 5 to 7
Method: In order to analyze whether treatment of Compound 8 has an atopy alleviation effect, ELISA (enzyme-linked immunosorbent assay) for IL-6 (interleukin 6) and IL-8 (interleukin 8) which are very closely related to atopic inflammation and psoriasis was performed.
As the specific experimental method, HEKa cells (Human Epidermal keratinocytes, adult), human-derived epidermal keratinocytes were seeded on a 24 well plate at a density of 1×10^5 cells, and cultured in an EpiLife medium (1× Human keratinocyte Growth supplement, 1× antibiotics) in an incubator under 37° C. and 5% CO2 for 24 hours.
After culturing, while an inflammatory condition was induced by treatment with either TNF-α (Tumor necrosis factor-α)/IFN-γ (interferon-γ) or IL-17A (interleukin-17A)/IL-22 (interleukin-22) in each well, further treatment was performed with Compound 8 of the present invention at a concentration of 10·M, and then the cells were incubated for a certain period. After completing culturing, media were collected, and then ELISA for each IL-6 and IL-8 was carried out.

[8] = system: psoriasis animal model induced by imiquimod 5% cream; assay: Psoriasis animal model, H&E staining of back tissue; format: in vivo, BALB/c mice; conditions: FIG. 15
Method: as §2, §3

For `CCCCCCCCCCCCCCCC(=O)NCCCC[C@H](NC(=O)[C@H](CCCCN(CC(=O)O)CC(=O)O)N(CC(=O)O)CC(=O)O)C(=O)O` [Compound 8], the “expression level of OASL gene” value [1] was “significantly decreased”, the TEWL value [2] was “remarkably reduced” and the “expression level of IL-36γ” value [3] was “reduced”. For the same compound, the “production of LC3-II” value [4] was “increased”, the “KRT6 (proliferative marker) level” value [5] was “reduced” and the “weight change after treatment” value [6] was “almost similar to those of the control group”. For the same compound, the “secretion of IL-6” value [7] was “significantly reduced” and the “thickness of stratum corneum” value [8] was “significantly reduced”.
